Legend:
[1] = target: T1, mouse NPY5-receptor (mNPY5) (Mus musculus, UniProt O70342); assay: Radioligand competition binding; details: HEK293 membranes expressing recombinant mNPY5; 100 pM [125I]labelled peptide YY; 1 h at 22° C.
T1 construct: The full-length cDNA encoding the mouse NPY5 (mNPY5) receptor was amplified from mouse brain cDNA; expressed in transfected cells; membrane preparation
T1 sequence (O70342 1-466): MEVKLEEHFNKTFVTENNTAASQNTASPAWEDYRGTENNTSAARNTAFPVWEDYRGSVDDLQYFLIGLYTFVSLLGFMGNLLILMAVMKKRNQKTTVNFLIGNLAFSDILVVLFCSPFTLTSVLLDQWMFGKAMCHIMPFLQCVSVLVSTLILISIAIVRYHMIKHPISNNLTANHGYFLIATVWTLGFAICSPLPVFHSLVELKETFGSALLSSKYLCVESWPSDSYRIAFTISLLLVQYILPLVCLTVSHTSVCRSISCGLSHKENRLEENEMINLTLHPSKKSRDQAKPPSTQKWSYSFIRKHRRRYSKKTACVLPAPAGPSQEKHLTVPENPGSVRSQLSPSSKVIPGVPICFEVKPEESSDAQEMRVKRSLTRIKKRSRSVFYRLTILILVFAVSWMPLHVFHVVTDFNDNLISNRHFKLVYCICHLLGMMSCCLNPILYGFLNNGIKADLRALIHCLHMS
From the text: The full-length cDNA encoding the mouse NPY5 (mNPY5) receptor was amplified from mouse brain cDNA using specific primers, designed based on the published sequence, and Pfu DNA-Polymerase (Stratagene). The amplification product was subcloned into the mammalian expression vector pcDNA3 using Eco RI and XhoI restriction sites. Positive clones were sequenced and one clone, encoding the published sequence was selected for generation of stable cell clones.
Human embryonic kidney 293 (HEK293) cells were transfected with 10 μg mNPY5 DNA using the lipofectamine reagent (Gibco BRL) according to the manufacturer's instruction. Two days after transfection, geneticin selection (1 mg/ml) was initiated and several stable clones were isolated. One clone was further used for pharmacological characterization.
Human embryonic kidney 293 cells (HEK293), expressing recombinant mouse NPY5-receptor (mNPY5) were broken by three freeze/thawing cycles in hypotonic Tris buffer (5 mM, pH 7.4, 1 mM MgCl2), homogenized and centrifuged at 72,000×g for 15 min. The pellet was washed twice with 75 mM Tris buffer, pH 7.4, containing 25 mM MgCl2 and 250 mM sucrose, 0.1 mM phenylmethylsulfonylfluoride and 0.1 mM 1,10-pheneanthrolin, resuspended in the same buffer and stored in aliquots at −80° C. Protein was determined according to the method of Lowry using bovine serum albumine (BSA) as a standard. […]

Row | Compound | IC50 [1] [nM] | melting point [°C]
1 | Cc1cc(N2CCCCC2)c2ccc(-c3ccc4[nH]ccc4c3)cc2n1 [Example 1.17, 7-(1H-Indol-5-yl)-2-methyl-4-piperidin-1-yl-quinoline] | 100 | –
2 | COc1ccc(-c2ccc3c(N4CCCC4)cc(C)nc3c2)cc1 [Example 1.6, 7-(4-methoxy-phenyl)-2-methyl-4-pyrrolidin-1-yl-quinoline] | 60 | –
3 | Cc1cc(N2CCCCC2)c2ccc(-c3cccs3)cc2n1 [Example 1.15, 2-methyl-4-piperidin-1-yl-7-thiophen-2-yl-quinoline] | – | 122 to 123
4 | Cc1cc(N2CCCCC2)c2ccc(-c3ccccc3)cc2n1 [Example 1.16, 2-methyl-7-phenyl-4-piperidin-1-yl-quinoline] | – | 111 to 112

Source: patent publication US7265125B2, “Neuropeptide Y antagonists” (Hoffmann-La Roche Inc., priority 2000, dated 2007)
